According to patent publication US20110173718A1, “HERBICIDE TOLERANT PLANTS” (SYNGENTA CROP PROTECTION, INC., priority 2008, published 2011):

Tests used:
Assay type in all cases: in vivo
[1] = system: tobacco plants expressing Wheat HPPD; experiment: Glasshouse spray test, wheat HPPD transgenic tobacco; settings: Wheat HPPD T1
Excerpt: Transgenic lines of tobacco, soyabean and corn etc. can be engineered to express various heterologous HPPDs derived from, for example Avena (SEQ ID #26), Wheat (SEQ ID #27), Pseudomonas fluorescens (SEQ ID # 25) and Shewanella colwelliana (SEQ ID #28) as, for example, described in WO 02/46387.
Single copy events amongst the T1 plant lines are identified by their 3:1 segregation ratio (wrt kanamycin and or herbicide) and by quantitative RT-PCR. Seed from the thus selected T1 tobacco (var Samsun) lines are sown in 3 inch diameter pots containing 50% peat, 50% John Innes soil no 3. After growth to the 3 leaf stage, plants are sprayed, as described above, in order to test for herbicide tolerance relative to like-treated non-transgenic tobacco plants. […]
Exactly as described in example 5 of WO 02/46387 the wheat HPPD gene sequence (Embl DD064495) is cloned behind an Arabidopsis Rubisco small subunit (SSU) promoter and in front of a nos gene terminator to produce an SSU Wheat HPPD nos expression cassette' which is cloned into a binary vector and transformed into tobacco to produce a population of 30-50 transgenic events.

[2] = system: tobacco (var Samsun) plantlets on liquid culture medium; experiment: HST + HPPD herbicide effects on tobacco seedlings on liquid culture medium; settings: for % Injury (bleaching), mesotrione by itself: 0.75% v/v DMSO, liquid culture, 20 DAT
Description: In an alternative herbicide test procedure tobacco (var Samsun) plantlets germinated aseptically in agar made up in 1/3 strength Murashige and Skoog salts medium are transferred after 4 d to float on top of 2.9 ml of sterile liquid culture medium (half strength Murashige and Skoog medium containing 30 mM sucrose) in wells of 12 well plates. Test compounds are added at various doses and bleaching damage is assessed after 14-20 DAT. The plantlets are kept covered under clear perspex and grown at 18° C. (night) and 24° C. (day) under a 1611 day (˜500-900 umol/m^2), 8 h darkness regime Plantlets continue to grow and produce new tissue over the 14-20 DAT period but are bleached and grow less in the presence of controlling concentrations of herbicide.

weeds = experiment: Glasshouse weed control by HST/HPPD (mesotrione) mixtures, pre-emergence; settings: 1 g/ha, N = 3

CS(=O)(=O)c1ccc(C(=O)C2C(=O)CCCC2=O)c([N+](=O)[O-])c1 [Mesotrione, mesotrione, reference compound]
% damage observed 16 DAT ([1]; 37 g/ha): 0%
% damage observed 16 DAT ([1]; 111 g/ha): 2%
% damage observed 16 DAT ([1]; 333 g/ha): 0%
% damage observed 16 DAT ([1]; 1000 g/ha): 13%
damage by mesotrione alone ([2]; lower dose of mesotrione used in the mixtures): no visible damage
% Injury (bleaching), mesotrione by itself ([2]; mesotrione 0.0005 ppm): 0%
% bleaching, mesotrione by itself ([2]; mesotrione 0.001 ppm, 0.75% DMSO, liquid culture medium, 14 DAT): 5%
% Injury (bleaching), mesotrione by itself ([2]; mesotrione 0.001 ppm): 20%
% Damage at 14 DAA, mesotrione alone (weeds; ALOMY): 0%
% Damage at 14 DAA, mesotrione alone (weeds; AMARE): 2%
% Damage at 14 DAA, mesotrione alone (weeds; ECHCG): 0%
% Damage at 14 DAA, mesotrione alone (weeds; IPOHE): 0%
% Damage at 14 DAA, mesotrione alone (weeds; SETFA): 0%
% Damage at 14 DAA, mesotrione alone (weeds; SOLNI): 17%
